“And” between values parts separate entries of the source, which are not always exact repeats. Equal values may be shown once.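 Interpolation was linear, between the two tested concentrations surrounding the appropriate level; five concentrations were tested over 48 hours in 96-well plates. GI50 is the concentration that inhibits growth by half. At the TGI there is no net growth.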
What was measured:
Test in all cases: NCI-60 cell line screen, 48 h
[1] = tested on: 786-0 renal
[2] = tested on: DU-145 prostate
[3] = tested on: IGROV1 ovarian
[4] = tested on: MOLT-4 leukemia
[5] = tested on: RPMI-8226 leukemia
[6] = tested on: UACC-62 melanoma
[7] = tested on: UO-31 renal
[8] = tested on: NCI-H522 lung

Compound `CC1=C(C#N)C23C(=O)N(c4ccccc4)C(=O)C2=C(O)C=CC3(O)N1Cc1ccc(Cl)cc1Cl` (stereo not drawn) has a GI50 [1] of 3.99 µM, a TGI [1] of 14.5 µM and a GI50 [2] of 2.7 µM. The TGI [2] was 11.6 µM, the GI50 [3] was 2.86 µM and the TGI [3] was 7.19 µM. It also gave a GI50 [4] of 2.92 µM, a TGI [4] of 7.55 µM and a GI50 [5] of 1.63 µM. The TGI [5] was 4.22 µM, the GI50 [6] was 1.88 µM and the TGI [6] was 4.4 µM. The GI50 [7] was 5.42 µM and the TGI [7] was 19.6 µM.
With `Nc1ncc(-c2ccc3ncnc(Nc4cccc(Cl)c4)c3c2)cn1` the GI50 [1] was 0.339 µM and 1.78 µM, the TGI [1] was > 100 µM and the GI50 [2] was 0.809 µM. For the same compound, the TGI [2] was > 100 µM, the GI50 [3] was 0.0206 µM and the TGI [3] was 0.223 µM. The GI50 [8] was 0.128 µM, the TGI [8] was 4.95 µM and the GI50 [5] was 0.206 µM. The GI50 [6] was 2.69 µM, the TGI [6] was > 100 µM and the GI50 [7] was 0.452 µM. For the same compound, the TGI [7] was > 100 µM.
Compound `COc1cc(-c2nn(-c3cccc(NC(=O)Nc4ccc(Cl)c(C(F)(F)F)c4)c3)cc2-c2ccncc2)ccc1Cl` has a GI50 [1] of 1.61 µM, a TGI [1] of 8.02 µM and a GI50 [2] of 1.5 µM. The TGI [2] was > 32.5 µM, the GI50 [3] was 1.2 µM and the TGI [3] was 4.22 µM. The GI50 [4] was 1.02 µM, the TGI [4] was 7.96 µM and the GI50 [8] was 1.14 µM. It also gave a TGI [8] of 6.06 µM, a GI50 [5] of 0.868 µM and a TGI [5] of 3.25 µM. The GI50 [6] was 0.738 µM, the TGI [6] was 2.09 µM and the GI50 [7] was 0.865 µM. For the same compound, the TGI [7] was 4.1 µM.
For `Cc1ccc2c(C(C[N+](=O)[O-])c3ccccc3)c(-c3ccccc3)[nH]c2c1` (stereo not drawn), the GI50 [1] was 40.3 µM, the TGI [1] was > 95 µM and the GI50 [2] was 34 µM. For the same compound, the TGI [2] was > 95 µM, the GI50 [3] was 13.4 µM and the TGI [3] was > 95 µM. For the same compound, the GI50 [4] was 34 µM, the TGI [4] was > 95 µM and the GI50 [8] was 3.17 µM. The TGI [8] was > 95 µM, the GI50 [5] was 36.8 µM and the TGI [5] was > 95 µM. The GI50 [6] was 14.1 µM, the TGI [6] was > 95 µM and the GI50 [7] was 15.4 µM. For the same compound, the TGI [7] was > 95 µM.
With `COc1ccc(NC(=O)Oc2ccc3c(C)cc(=O)oc3c2)c(OC)c1` (tested in a mixture with another compound) the TGI [1] was > 100 µM, the TGI [2] was > 100 µM and the TGI [3] was > 100 µM. For the same compound, the TGI [4] was > 100 µM, the TGI [8] was > 100 µM and the TGI [5] was > 100 µM. For the same compound, the TGI [6] was > 100 µM and the TGI [7] was > 100 µM.
For `Cc1ccc(S(=O)(=O)ON2C(=O)c3cccc4cc([N+](=O)[O-])cc(c34)C2=O)cc1`, the TGI [1] was > 100 µM, the TGI [2] was > 100 µM and the TGI [3] was > 100 µM. The TGI [4] was > 100 µM, the TGI [8] was > 100 µM and the TGI [5] was > 100 µM. The TGI [6] was > 100 µM and the TGI [7] was > 100 µM.
For `O=C(O)/C=C/c1ccc(Oc2ccccc2C(=O)O)o1`, the TGI [1] was > 10 µM, the TGI [2] was > 10 µM and the TGI [3] was > 10 µM. The TGI [4] was > 10 µM, the TGI [8] was > 10 µM and the TGI [5] was > 10 µM. For the same compound, the TGI [6] was > 10 µM.
In the case of `COc1ccc2cc(-c3cnc4nonc4n3)ccc2c1`, the GI50 [1] is reported as 4.17 µM, the TGI [1] is reported as > 100 µM and the GI50 [2] is reported as 24.4 µM. The TGI [2] was > 100 µM, the GI50 [3] was 15.3 µM and the TGI [3] was > 100 µM. For the same compound, the GI50 [4] was 1.92 µM, the TGI [4] was > 100 µM and the GI50 [8] was 1.29 µM. For the same compound, the TGI [8] was > 100 µM, the GI50 [5] was 0.685 µM and the TGI [5] was 17.5 µM. For the same compound, the GI50 [6] was 2.32 µM, the TGI [6] was > 100 µM and the GI50 [7] was 3.23 µM. For the same compound, the TGI [7] was > 100 µM.
In the case of `COc1ccc(-c2ncnc3c2ncn3CC#CCCl)cc1`, the GI50 [1] is reported as 1.86 µM, the TGI [1] is reported as 3.93 µM and the GI50 [2] is reported as 4.74 µM. For the same compound, the TGI [2] was 18.4 µM, the GI50 [4] was 2.68 µM and the TGI [4] was > 100 µM. It also gave a GI50 [8] of 3.09 µM, a TGI [8] of 14 µM and a GI50 [5] of 3.46 µM. It also gave a TGI [5] of 20 µM, a GI50 [6] of 3.32 µM and a TGI [6] of 15.2 µM. It also gave a GI50 [7] of 2.43 µM and a TGI [7] of 15.3 µM.
For `COC(=O)/C=C1/SC(=Nc2cccc(Cl)c2)N(CCc2c[nH]c3ccc(O)cc23)C1=O`, the GI50 [1] was 1.67 µM, the TGI [1] was 3.4 µM and the GI50 [2] was 1.86 µM. For the same compound, the TGI [2] was 4.81 µM, the GI50 [3] was 2 µM and the TGI [3] was 4.35 µM. It also gave a GI50 [4] of 1 µM, a TGI [4] of 5.1 µM and a GI50 [8] of 1.63 µM. For the same compound, the TGI [8] was 3.4 µM, the GI50 [5] was 1.24 µM and the TGI [5] was 3.98 µM. It also gave a GI50 [6] of 1.68 µM, a TGI [6] of 3.47 µM and a GI50 [7] of 1.43 µM. For the same compound, the TGI [7] was 2.88 µM.
In the case of `CC(C)(C)OC(=O)C1C(=O)NC(=O)CC1CC(OCc1ccccc1)C(OCc1ccccc1)C(COCc1ccccc1)OCc1ccccc1` (stereo not drawn), the GI50 [1] is reported as 47.6 µM and 12.3 µM, the TGI [1] is reported as > 100 µM and the TGI [2] is reported as > 100 µM. For the same compound, the GI50 [3] was > 100 µM and 22.3 µM, the TGI [3] was > 100 µM and the GI50 [4] was 14.1 µM and 3.86 µM. The TGI [4] was > 100 µM and 28.1 µM, the GI50 [5] was 21.5 µM and 7.16 µM and the TGI [5] was > 100 µM and 34.1 µM. For the same compound, the GI50 [7] was 11.1 µM and 4.48 µM and the TGI [7] was 24.8 µM and 16.2 µM.
For `COc1ccc(Br)cc1NC(=O)Nc1cccc2c1ccn2Cc1ccnc(N)c1`, the GI50 [1] was 8.57 µM and 8.88 µM, the TGI [1] was 27.5 µM and > 10 µM and the GI50 [2] was 7.86 µM and > 10 µM. For the same compound, the TGI [2] was 37.9 µM and > 10 µM, the GI50 [3] was 7.64 µM and 3.95 µM and the TGI [3] was 44.2 µM and > 10 µM. For the same compound, the GI50 [4] was 3.06 µM and 3.14 µM, the TGI [4] was 18.9 µM and > 10 µM and the GI50 [8] was 1.89 µM and 2.45 µM. The TGI [8] was 4.35 µM and > 10 µM, the GI50 [5] was 2.93 µM and 3.54 µM and the TGI [5] was > 31.6 µM. For the same compound, the GI50 [6] was 6.17 µM and 5.94 µM, the TGI [6] was 21.7 µM and > 10 µM and the GI50 [7] was 9.78 µM and 3.12 µM. The TGI [7] was 26.3 µM and > 10 µM.
In the case of `COC[C@H](NC(=O)c1cnc(C)s1)C(=O)N[C@@H](COC)C(=O)N[C@@H](Cc1ccccc1)C(=O)[C@@]1(C)CO1`, the GI50 [1] is reported as 50.1 µM, the TGI [1] is reported as > 100 µM and the GI50 [2] is reported as 37.1 µM. The TGI [2] was > 100 µM, the GI50 [3] was 38.8 µM and the TGI [3] was > 100 µM. The GI50 [4] was 23.8 µM, the TGI [4] was > 100 µM and the GI50 [8] was 12.8 µM. The TGI [8] was 63 µM, the GI50 [5] was 18.5 µM and the TGI [5] was > 100 µM. For the same compound, the GI50 [6] was 15.8 µM, the TGI [6] was 39 µM and the GI50 [7] was 30.9 µM. The TGI [7] was > 100 µM.
`CCOC(=O)C(=Cc1ccc(C#N)cc1)C(=O)OCC` gave a GI50 [1] of 1.84 µM, a TGI [1] of 3.88 µM and a GI50 [2] of 3.04 µM. It also gave a TGI [2] of 10.3 µM, a GI50 [3] of 2.61 µM and a TGI [3] of 7.96 µM. The GI50 [4] was 3.09 µM, the TGI [4] was 11.5 µM and the GI50 [8] was 1.48 µM. For the same compound, the TGI [8] was 3.1 µM, the GI50 [5] was 2.65 µM and the TGI [5] was 7.71 µM. For the same compound, the GI50 [6] was 1.99 µM, the TGI [6] was 4.54 µM and the GI50 [7] was 1.65 µM. It also gave a TGI [7] of 3.49 µM.
In the case of `CCC(CC)n1cnc2c(-c3cnc(N)cn3)nc(N3CC4CCC(C3)O4)nc21`, the GI50 [1] is reported as 0.237 µM, the TGI [1] is reported as > 100 µM and the GI50 [2] is reported as 0.93 µM. For the same compound, the TGI [2] was > 100 µM, the GI50 [3] was 0.0929 µM and the TGI [3] was 1.13 µM. For the same compound, the GI50 [4] was 0.322 µM, the TGI [4] was 53.4 µM and the GI50 [8] was 0.209 µM. The TGI [8] was > 100 µM, the GI50 [5] was 0.102 µM and the TGI [5] was 5.75 µM. For the same compound, the GI50 [6] was 0.122 µM, the TGI [6] was 0.929 µM and the GI50 [7] was 0.0961 µM.
`Cc1ccc(CNc2ccc3nc(CCC4CCCCC4)[nH]c3c2)cc1` showed a GI50 [1] of 2.12 µM, a TGI [1] of 4.93 µM and a GI50 [2] of 3.73 µM. For the same compound, the TGI [2] was > 100 µM, the GI50 [3] was 2.28 µM and the TGI [3] was 10.3 µM. The GI50 [4] was 2.76 µM, the TGI [4] was 9.71 µM and the GI50 [8] was 1.99 µM. For the same compound, the TGI [8] was 5.13 µM, the GI50 [5] was 2.03 µM and the TGI [5] was 4.64 µM. For the same compound, the GI50 [6] was 1.74 µM, the TGI [6] was 3.4 µM and the GI50 [7] was 1.35 µM. For the same compound, the TGI [7] was 3.3 µM.

From PubChem BioAssay (NCI)
